Source: patent publication US6906035B2, “Antimicrobial cationic peptides” (priority 1995, dated 2005)
Read-outs that look alike come from different tables or passages of the source. Ends that are not written are not given here.

Tests used:
[1] = system: A. calcoacet.
Method: (§1) Effect of formulation on bactericidal activity and MIC was determined using the test solutions listed below.
(§2) The media used in this experiment was Cation Adjusted Muller Hinton (CAMHB), and CAMHB +8 mM citrate.

[2] = system: E. cloacae
Method: as §1, §2

[3] = system: S. typhimurium; conditions: S. typhimurium (C610)
Method: as §1, §2

[4] = mice
Method: Immediately afterwards LPS (10 or 20 μg) in 100 μl is injected. The mice are observed at 24 and 48 hours after injections and survivors noted.

[5] = system: E. facaelis; conditions: E. facaelis (C625)
Method: as §1, §2

[6] = system: P. aeruginosa; assay: Effect of formulation on bactericidal activity (killing, survivors over time); assay type: cell-based
Method: as §1

[7] = system: P. aeruginosa; conditions: P. aeruginosa (H103)
Method: as §1, §2

[8] = system: E. coli
Method: as §1, §2

[9] = system: RAW cells; assay: RAW cell viability by Trypan blue exclusion; assay type: cell-based; conditions: up to 50 μg peptide
[10] = system: LPS-induced TNF in RAW 264.7 macrophage cells; assay: Inhibition of LPS-induced TNF in RAW 264.7 macrophages (L929 cytotoxic assay); assay type: cell-based, mouse; conditions: for depression of TNF induction by aspirated medium containing peptide: fresh RAW cells
Method: RAW 264.7 macrophage cells were grown by seeding 10^6 cells into a 162 cm^2 cell culture flask and incubated at 37° C., 5% CO2 for 1 week. RAW cell media [(Dulbecco's Modified Eagle Medium with Hepes buffer 450 ml; 2.4 mML-glutamine 3 ml (400 mM); Pen/Strep 3 ml (10^4 U/ml of Pen, 1 mg/ml strep); and 10% heat inactivated fetal bovine serum (FBS) 50 ml)] was then completely removed from flasks. 10 mls of cell dissociation solution (Sigma) was added to each flask and inc; bated at 37° C. for 10 minutes. Cells were removed from flasks, diluted in RAW cell media and centrifuged for 6 minutes. The cell pellet was resuspended in 5 ml of media/flask used, 100 μl cell suspension was removed and added to 400 μl of trypan blue and cells were counted using a hemocytometer. The cell suspension was diluted to 1×10^6 cells/ml and 1 ml of suspension was added per well of a 24 well plate. The 24 well plates were incubated at 37° C., 5% CO2 overnight for use in the assay.
After an overnight incubation, the media was aspirated from all the wells. 100 μl of Lipopolysaccharide (LPS) was added at 100 ng/100 μl. CEME, CEMA or MBI 29 was added at the desired concentration/100 μl to specified wells. […] The plates were then incubated for six hours at 37° C., 5% CO2. The supernatant was then removed from the wells and stored overnight at 4° C. For those wells in which whole bacteria were added directly to the wells, the supernatant was centrifuged in 0.2 μm filter eppendorf tubes for 5 minutes.
The supernatants were then used in cell cytotoxic L929 assay. The samples were transferred to 96 well plates. 50 μl of TNF media was added to all the wells in all the plates except to those wells in the first row. 10 μl of murine TNF standard (20 ng/ml) and 90 μl of TNF media was added in duplicate to the plate and diluted 1:2 down the plate to the second to last row. Test samples (75 μl), comprising the supernatants from the RAW cell assays, were added to separate rows in duplicate and diluted 1:3 to the second to last rows.
TNF-sensitive L929 mouse fibroblast cells were grown by seeding 10^6 cells into a 162 cm^2 cell culture flask and left to grow for 1 week. L929 cells were removed from the flask with 10 mls of trypsin-EDTA/flask and incubated 3-5 minutes. Cell suspension was diluted and centrifuged for 6 minutes. The pellet was resuspended in 5 mls of fresh L929 media/flask and counted (same as RAW cells). Cell suspension was diluted to 10^6 cells/ml. 100 μl was used to inoculate each well of the 96 well plates with the supernatants. (L929 Growth Media was the same as RAW cell media except instead of FBS, 50 mls of 10% heat inactivated horse serum was utilized; TNF Assay Media was the same as RAW cell media except 4 μg/ml Actinomycin D was added.)
The plates were incubated at 37° C. at 5% CO2 for 2 days. The media was then aspirated and replaced with 100 μl of the dye MTT (0.5 mg/ml) in modified Eagle Medium without phenol red. The plates were then incubated at 37° C. at 5% CO2 for 3 hours. The dye was then removed and replaced with 100 μl of absolute ethanol. […]
The plates were read at 570 nm in a ELISA plate reader with 690 nm reference filter. […]
TNF levels were measured six hours after the addition of E. coli 0111:B4 or E. coli Bort LPS (FIGS. 5a, 5b, 5c and FIGS. 6a and 6c as labeled). […]
In order to determine how rapidly the cationic peptides reduced LPS-induced TNF production, E. coli 0111:B4 was added at time 0 to RAW macrophages. […] Levels of TNF were measured after 6 hours. […]

**Q.** For KWKSFIKKLTSAAKKVVTTAKPLISS [MBI 26], which MIC ([1]; A. calcoacet (C403), CAMHB) is on record?
**A.** Its MIC is 1 µg/mL.

**Q.** And the MIC ([1]; A. calcoacet (C403), CAMHB + Citrate (8 mM))?
**A.** The MIC was 1 µg/mL.

**Q.** And the MIC ([1]; A. calcoacet. (C402), CAMHB)?
**A.** The MIC was 8 µg/mL.

**Q.** And the MIC ([1]; A. calcoacet. (C402), CAMHB + Citrate (8 mM))?
**A.** Its MIC is 4 µg/mL.

**Q.** What about the MIC ([2]; E. cloacae (C601), CAMHB) of the same compound?
**A.** The MIC was 8 µg/mL.

**Q.** What about the MIC ([2]; E. cloacae (C601), CAMHB + Citrate (8 mM)) of the same compound?
**A.** The MIC was 4 µg/mL.

**Q.** And the MIC ([2]; E. cloacae (C602), CAMHB)?
**A.** Its MIC is 8 µg/mL.

**Q.** What about the MIC ([2]; E. cloacae (C602), CAMHB + Citrate (8 mM)) of the same compound?
**A.** The MIC was 4 µg/mL.

**Q.** And the MIC ([2]; E. cloacae (C603), CAMHB)?
**A.** The MIC was 4 µg/mL.

**Q.** What about the MIC ([2]; E. cloacae (C603), CAMHB + Citrate (8 mM)) of the same compound?
**A.** The MIC was 2 µg/mL.

**Q.** What about the MIC ([3]; CAMHB) of the same compound?
**A.** Its MIC is 8 µg/mL.

**Q.** And the MIC ([3]; CAMHB + Citrate (8 mM))?
**A.** The MIC was 2 µg/mL.

**Q.** And the non-toxic dose [4]?
**A.** The non-toxic dose was “up to 30.6 mg/kg”.

**Q.** And the MIC ([5]; CAMHB)?
**A.** Its MIC is 16 µg/mL.

**Q.** What about the MIC ([5]; CAMHB + Citrate (8 mM)) of the same compound?
**A.** Its MIC is over 32 µg/mL.

**Q.** And the “Survivors at Time (min.)” value ([6]; Citrate (0.129 M) +Ascorbic Acid (100 mM), MBI 26 10 MG/ML, 0 min)?
**A.** Its value is 1.3 × 10^7.

**Q.** And the “Survivors at Time (min.)” value ([6]; Citrate (0.129 M) +Ascorbic Acid (100 mM), MBI 26 10 MG/ML, 15 min)?
**A.** The value was 0.

**Q.** What about the “Survivors at Time (min.)” value ([6]; Citrate (0.129 M) +Ascorbic Acid (100 mM), MBI 26 10 MG/ML, 30 min) of the same compound?
**A.** Its value is 0.

**Q.** And the “Survivors at Time (min.)” value ([6]; Citrate (0.129 M) +Ascorbic Acid (100 mM), MBI 26 10 MG/ML, 60 min)?
**A.** Its value is 0.

**Q.** What about the “Survivors at Time (min.)” value ([6]; Citrate (0.129 M), MBI 26 10 MG/ML, 0 min) of the same compound?
**A.** Its value is 1.1 × 10^7.

**Q.** What about the “Survivors at Time (min.)” value ([6]; Citrate (0.129 M), MBI 26 10 MG/ML, 15 min) of the same compound?
**A.** Its value is 0.

**Q.** And the “Survivors at Time (min.)” value ([6]; Citrate (0.129 M), MBI 26 10 MG/ML, 30 min)?
**A.** Its value is 0.

**Q.** And the “Survivors at Time (min.)” value ([6]; Citrate (0.129 M), MBI 26 10 MG/ML, 60 min)?
**A.** Its value is 0.

**Q.** What about the “Survivors at Time (min.)” value ([6]; Citrate-Dextrose, MBI 26 10 MG/ML, 0 min) of the same compound?
**A.** The value was 9 × 10^6.

**Q.** And the “Survivors at Time (min.)” value ([6]; Citrate-Dextrose, MBI 26 10 MG/ML, 15 min)?
**A.** The value was 20.

**Q.** And the “Survivors at Time (min.)” value ([6]; Citrate-Dextrose, MBI 26 10 MG/ML, 30 min)?
**A.** Its value is 0.

**Q.** And the “Survivors at Time (min.)” value ([6]; Citrate-Dextrose, MBI 26 10 MG/ML, 60 min)?
**A.** Its value is 0.

**Q.** And the “Survivors at Time (min.)” value ([6]; Citrate-Phosphate Dextrose, MBI 26 10 MG/ML, 0 min)?
**A.** Its value is 0.

**Q.** What about the “Survivors at Time (min.)” value ([6]; Citrate-Phosphate Dextrose, MBI 26 10 MG/ML, 30 min) of the same compound?
**A.** The value was 0.

**Q.** And the “Survivors at Time (min.)” value ([6]; Citrate-Phosphate Dextrose, MBI 26 10 MG/ML, 60 min)?
**A.** Its value is 0.

**Q.** What about the “Survivors at Time (min.)” value ([6]; Dextran, MBI 26 (20 μg), 0 min) of the same compound?
**A.** Its value is 1.9 × 10^7.

**Q.** And the “Survivors at Time (min.)” value ([6]; Dextran, MBI 26 (20 μg), 15 min)?
**A.** The value was 1.2 × 10^6.

**Q.** What about the “Survivors at Time (min.)” value ([6]; Dextran, MBI 26 (20 μg), 30 min) of the same compound?
**A.** Its value is 1 × 10^6.

**Q.** What about the “Survivors at Time (min.)” value ([6]; Dextran, MBI 26 (20 μg), 60 min) of the same compound?
**A.** Its value is 8.5 × 10^5.

**Q.** And the MIC ([7]; CAMHB)?
**A.** The MIC was 16 µg/mL.

**Q.** What about the MIC ([7]; CAMHB + Citrate (8 mM)) of the same compound?
**A.** The MIC was 2 µg/mL.

**Q.** And the MIC ([8]; E. coli (111:B4), CAMHB)?
**A.** The MIC was 8 µg/mL.

**Q.** What about the MIC ([8]; E. coli (111:B4), CAMHB + Citrate (8 mM)) of the same compound?
**A.** The MIC was 2 µg/mL.

**Q.** What about the MIC ([8]; E. coli (Bort), CAMHB) of the same compound?
**A.** The MIC was 16 µg/mL.

**Q.** What about the MIC ([8]; E. coli (Bort), CAMHB + Citrate (8 mM)) of the same compound?
**A.** The MIC was 8 µg/mL.

**Q.** And the MIC ([8]; E. coli (UB 1005), CAMHB)?
**A.** Its MIC is 4 µg/mL.

**Q.** And the MIC ([8]; E. coli (UB 1005), CAMHB + Citrate (8 mM))?
**A.** The MIC was 2 µg/mL.

**Q.** With `CC[C@H](C)[C@H](NC(=O)[C@H](CC(C)C)NC(=O)[C@H](C)NC(=O)[C@@H]1CCCN1C(=O)[C@H](CC(C)C)NC(=O)CNC(=O)[C@@H](NC(=O)[C@@H](NC(=O)[C@H](CC(C)C)NC(=O)[C@@H](NC(=O)[C@H](CCCCN)NC(=O)[C@H](CCCCN)NC(=O)[C@@H](NC(=O)[C@H](C)NC(=O)[C@@H](NC(=O)[C@@H](NC(=O)[C@H](CC(C)C)NC(=O)[C@H](CCCCN)NC(=O)[C@H](CCCCN)NC(=O)[C@@H](NC(=O)[C@H](Cc1ccccc1)NC(=O)[C@H](CO)NC(=O)[C@H](CCCCN)NC(=O)[C@H](Cc1c[nH]c2ccccc12)NC(=O)[C@@H](N)CCCCN)[C@@H](C)CC)[C@@H](C)O)[C@@H](C)O)C(C)C)C(C)C)[C@@H](C)O)[C@@H](C)O)C(=O)N[C@@H](CO)C(=O)O` [MBI 29] as the compound, how does the RAW cell viability [9] read?
**A.** Its RAW cell viability is “no apparent decrease”.

**Q.** What about the “TNF induction in RAW cells preincubated with peptide and washed” value ([10]; 20 μg peptide 60 minutes, washed 3 times, then 10 ng or 100 ng LPS) of the same compound?
**A.** Its value is 14,000-20,000 Units of TNF per ml.

**Q.** And the “inhibition of TNF induction by LPS” value ([10]; E. coli 0111:B4 at time 0, peptide added at 0, 30 and 60 minutes, TNF after 6 hours)?
**A.** The value was “inhibited TNF induction by LPS in a similar manner to polymyxin B”.

**Q.** What about the “reduction of LPS-induced TNF when added after LPS” value ([10]; added 60 minutes after the addition of LPS) of the same compound?
**A.** The value was “effective”.

**Q.** And the “depression of TNF induction by aspirated medium containing peptide” value ([10]; 10 ng E. coli LPS)?
**A.** Its value is 98.5%.

**Q.** And the “depression of TNF induction by aspirated medium containing peptide” value ([10]; 100 ng E. coli LPS)?
**A.** Its value is 75%.
